# Target: cytochrome bo oxidase (Escherichia coli, UniProt P0ABI8)
# Assay type: biochemical
# cytochrome bo oxidase, sequence (P0ABI8 whole entry): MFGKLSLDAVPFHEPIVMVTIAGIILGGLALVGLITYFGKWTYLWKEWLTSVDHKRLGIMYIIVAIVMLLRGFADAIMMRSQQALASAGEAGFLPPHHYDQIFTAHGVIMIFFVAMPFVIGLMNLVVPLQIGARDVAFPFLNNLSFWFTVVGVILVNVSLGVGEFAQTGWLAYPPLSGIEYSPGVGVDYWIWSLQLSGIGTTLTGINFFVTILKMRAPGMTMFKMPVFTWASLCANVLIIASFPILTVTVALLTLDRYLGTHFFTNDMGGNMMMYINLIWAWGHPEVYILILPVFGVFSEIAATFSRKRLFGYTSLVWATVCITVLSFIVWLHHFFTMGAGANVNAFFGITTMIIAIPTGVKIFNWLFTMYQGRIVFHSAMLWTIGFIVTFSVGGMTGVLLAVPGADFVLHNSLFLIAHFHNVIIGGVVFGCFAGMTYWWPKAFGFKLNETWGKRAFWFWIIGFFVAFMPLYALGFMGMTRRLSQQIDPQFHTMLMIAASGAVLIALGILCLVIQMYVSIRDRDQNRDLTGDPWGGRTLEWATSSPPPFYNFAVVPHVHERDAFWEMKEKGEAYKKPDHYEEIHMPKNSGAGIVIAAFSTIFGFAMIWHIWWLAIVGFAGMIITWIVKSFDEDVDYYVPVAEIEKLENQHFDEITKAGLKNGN
# cytochrome bo oxidase, sequence (P0ABJ1 25-315 partner): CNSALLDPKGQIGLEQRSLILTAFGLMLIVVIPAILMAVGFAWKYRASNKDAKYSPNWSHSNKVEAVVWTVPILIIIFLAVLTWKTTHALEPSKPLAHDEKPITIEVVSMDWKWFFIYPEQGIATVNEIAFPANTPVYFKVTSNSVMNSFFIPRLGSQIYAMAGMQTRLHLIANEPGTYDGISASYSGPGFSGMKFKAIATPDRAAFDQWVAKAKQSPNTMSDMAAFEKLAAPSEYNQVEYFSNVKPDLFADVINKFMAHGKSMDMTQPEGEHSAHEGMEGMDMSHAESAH
# cytochrome bo oxidase, sequence (P0ABJ3 whole entry partner): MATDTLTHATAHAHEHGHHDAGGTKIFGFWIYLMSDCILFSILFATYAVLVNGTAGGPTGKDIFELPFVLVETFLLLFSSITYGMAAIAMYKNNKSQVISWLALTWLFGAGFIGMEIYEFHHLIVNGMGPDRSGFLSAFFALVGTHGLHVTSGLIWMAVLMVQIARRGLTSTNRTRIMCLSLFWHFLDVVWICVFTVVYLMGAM
# cytochrome bo oxidase, sequence (P0ABJ6 whole entry partner): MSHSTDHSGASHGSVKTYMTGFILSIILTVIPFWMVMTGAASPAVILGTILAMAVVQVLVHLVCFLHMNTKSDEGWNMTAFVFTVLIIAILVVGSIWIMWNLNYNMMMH
compound,measurement,value
S [hydrogen sulfide],IC50,~5 µM
